Results on four compounds are retold here after patent US20260167629A1, “NOVEL INDAZOLE DERIVATIVE OR PHARMACEUTICALLY ACCEPTABLE SALT THEREOF, AND USE THEREOF” (KOREA UNIVERSITY RESEARCH AND BUSINESS FOUNDATION, priority 2022, published 2026).

Data set [1] deals with MDA-MB-231 cell line. Description: MTS cell viability assay in MDA-MB-231 cell line. It counts as cell-based. Particulars: Homo sapiens, MDA-MB-231, 72 hours. How it is done:
A HER2 positive breast cancer (HER2+BC) cell line, JIMT-1 (cell seeding numbers: 1.0 (JIMT)×10^4 cells/wells (confluency≤30%)) and a triple-negative breast cancer (TNBC) cell line, MDA-MB-231 (cell seeding numbers: 1.0 (M231)×10^4 cells/wells (confluency≤30%) were used in the experiment.
The above cell lines were cultured in Dulbecco's Modified Eagle's Medium (DMEM) or Eagle's minimum Essential Medium (MEM) each containing 10% fetal bovine serum (FBS), streptomycin-penicillin (100 U/ml), and Fungizone (0.625 μg/ml), respectively under 5% CO2, 37° C. environment.
The JIMT-1 cell line and MDA-MB-231 cell line were treated with the indazole derivatives (formulas 1-1 to 1-53) of the present disclosure at a concentration of 10 μM each for 72 hours, and then cell viability was measured using the MTS assay technique. The control group was treated with DMSO as an untreated group (0 μM) of the indazole derivative of the present disclosure.
(§1) Specifically, cells were attached to 96 well plates for 24 hours, and then treated with the indazole derivatives for 72 hours. Thereafter, the cells were chromogenized with MTS for 4 hours, and the absorbance was measured at 490 nm using a Spectramax Plus384 microplate analyzer. The significance between the control group and the experimental group was verified using an unpaired Students t-test (*p<0.01; DMSO control vs indazole series).
HER2-positive breast cancer cell lines, BT474 (cell seeding numbers: 2.0 (JIMT)×10^4 cells/wells (confluency≤30%)) sensitive to trastuzumab, and JIMT-1 (cell seeding numbers: 1.0 (JIMT)×10^4 cells/wells (confluency≤30%)) resistant to trastuzumab, and a triple-negative breast cancer cell line, MDA-MB-231 (cell seeding numbers: 1.0 (M231)×10^4 cells/wells (confluency≤30%)) were used.
The BT474, JIMT-1, and MDA-MB-231 cell lines were treated with compound 18c (formula 1-16) and compound 11k (formula 1-7) at concentrations of 0 (DMSO), 0.1, 0.5, 1, 5, 10, and 20 μM, respectively, for 72 hours, and then cell viability was measured using the MTS assay technique as explained by the description of Experimental Example 1. The cell viability experiment was performed independently three times, and the significance was verified by a One-Way Anova, Bonferroni post-hoc test (*p<0.01; DMSO control vs. compound 18c or compound 11k).
In addition, the JIMT-1 and MDA-MB-231 cell lines were treated with compound 11m (formula 1-9), 11n (formula 1-10) and compound 12k (formula 1-13) at concentrations of 0 (DMSO), 0.1, 1, 5, 10, and 20 μM, respectively, for 72 hours, and then cell viability was measured.
(§2) Meanwhile, triple-negative breast cancer cell lines MDA-MB-231 and BT549, and a mouse breast cancer cell line 4T1 were treated with compound 38 (formula 1-30) at concentrations of 0 (DMSO), 0.1, 0.5, 1, 2, 5, 10, and 20 μM for 72 hours, and then cell viability was measured.
The indazole derivative of the present disclosure was compared with the benzopyran derivative of the related art (KR 10-2304532) in terms of cell viability of the BT474, JIMT-1, and MDA-MB-231 cell lines (Table 1). In this case, the cell lines were treated with the benzopyran derivative at a concentration of 10 μM for 72 hours and the cell lines were treated with the indazole derivative at a concentration of 10 μM for 72 hours, and then the cell viability was measured.
In general terms: Formazan colour is commonly taken as a measure of viable cells.

The test system of the next data set is JIMT-1 cell line. Nature of the data set: MTS cell viability assay in JIMT-1 cell line. Format: cell-based. As to conditions: Homo sapiens, JIMT-1, 72 hours. How it is done: The control group was treated with DMSO as an untreated group (0 μM) of the indazole derivative of the present disclosure.
Specifically, cells were attached to 96 well plates for 24 hours, and then treated with the indazole derivatives for 72 hours. Thereafter, the cells were chromogenized with MTS for 4 hours, and the absorbance was measured at 490 nm using a Spectramax Plus384 microplate analyzer.
HER2 positive breast cancer (HER2+BC) cell lines, BT474 (cell seeding numbers: 2.4 (BT474)×10^4 cells/wells (confluency≥50%)) sensitive to trastuzumab and JIMT-1 (cell seeding numbers: 1.0 (JIMT-1)×10^4 cells/wells (confluency>30%)) resistant to trastuzumab were used in the experiment.
In this case, the cell lines were treated with the benzopyran derivative at a concentration of 10 μM for 72 hours and the cell lines were treated with the indazole derivative at a concentration of 10 μM for 72 hours, and then the cell viability was measured.

A short description of data set [2]: Toxicity in JIMT-1 xenograft mice, combination with paclitaxel (body weight, AST, ALT, BUN). Format: in vivo, Balb/c nude mice. Particulars: combination study.
In data set [3] the test system is JIMT-1 breast cancer cell line xenograft. Nature of the data set: Tumor growth in JIMT-1 xenograft mouse model, combination with paclitaxel. Format: in vivo, Balb/c nude mice. How it is done: This experiment was performed in an in vivo environment using a xenograft mouse model transplanted with the JIMT-1 breast cancer cell line.
6-week-old mice (Balb/c nude mice) were purchased and raised in an environment where they could freely access food and water. The mice were acclimated for more than 7 days, and then were transplanted with tumor cells. Tumor cells were injected subcutaneously into the mammary gland tissue of JIMT-1 breast cancer cells at a density of 3×10^6 cells/mL per individual, and when the tumor reached a size of 50 to 100 mm^3, the indazole derivative of the present disclosure was administered intraperitoneally, and the tumor growth was measured.

In data set [4] the test system is MDA-MB-231 cell line. Nature of the data set: Cell morphology by phase contrast microscopy, MDA-MB-231. It counts as cell-based. As to conditions: MDA-MB-231, 5 and 10 μM, 72 hours. How it is done:
(§3) MDA-MB-231 and BT549 cell lines were treated with compound 38 (formula 1-30) at concentrations of 0 (DMSO), 5, and 10 μM for 72 hours. Then, the drug-induced cytotoxicity was assessed by observing changes in cell morphology using phase contrast microscopy. The photographs were taken at a magnification of ×200 using phase contrast microscopy.

The test system of data set [5] is BT549 cell line. Description: Annexin V/PI staining, type of cell death, BT549. It counts as cell-based. How it is done: (§4) Meanwhile, triple-negative breast cancer cell lines, MDA-MB-231 and BT549 were treated with compound 38 (formula 1-30), and then the type of cell death was determined by Annexin V/PI staining.
In data set [6] the test system is mouse breast cancer cell line 4T1. Description: MTS cell viability assay in 4T1 cell line. It counts as cell-based. As to conditions: 4T1, 72 hours. How it is done:
as §1, §2

For data set [7], the system named is BT549 cell line. Description: MTS cell viability assay in BT549 cell line. It counts as cell-based. As to conditions: Homo sapiens, BT-549; BT549, 72 hours. How it is done: as §1, §2
The test system of data set [8] is BT549 cell line. Description: Cell morphology by phase contrast microscopy, BT549. Format: cell-based. As to conditions: BT549, 5 and 10 μM, 72 hours. How it is done:
as §3

Data set [9] relates to MDA-MB-231 cell line. Nature of the data set: Annexin V/PI staining, type of cell death, MDA-MB-231. It counts as cell-based. As to conditions: MDA-MB-231, Annexin V/PI staining. How it is done: as §4

Broadly, the IC50 is the midpoint of a concentration-inhibition curve. Read a high IC50 as weaker potency in that assay. Regarding `COc1c(C(=O)Nc2ccc3cnn(CCC4CCN(C)CC4)c3c2)ccc2c1C=CC(C)(C)O2` [compound 12k, 5-methoxy-2,2-dimethyl-N-(1-(2-(1-methylpiperidin-4-yl)ethyl)-1H-indazol-6-yl)-2H-chromene-6-carboxamide], the figures for the IC50 in the data set on MDA-MB-231 cell line [1] and with JIMT-1 cell line were 2.05 µM and 5.56 µM, respectively.
For `COc1c(C(=O)Nc2ccc3c(C)nn(CCCN4CCN(C)CC4)c3c2)ccc2c1C=CC(C)(C)O2` [compound 11n, 5-methoxy-2,2-dimethyl-N-(3-methyl-1-(3-(4-methylpiperazin-1-yl)propyl)-1H-indazol-6-yl)-2H-chromene-6-carboxamide], in that order: 3.65 µM and 3.28 µM.
Take `CC(=O)O[C@H]1C(=O)[C@@]2(C)[C@H]([C@H](OC(=O)c3ccccc3)[C@]3(O)C[C@H](OC(=O)[C@H](O)[C@@H](NC(=O)c4ccccc4)c4ccccc4)C(C)=C1C3(C)C)[C@]1(OC(C)=O)CO[C@@H]1C[C@@H]2O` [paclitaxel, reference compound]: the “AST and ALT levels, BUN assay” value in data set [2] (blood of the mouse model) is recorded as “levels similar to those of the control group”. For the same compound, the body weight entry in data set [2] is given as “remained unchanged”. Further, in [3] (measured after tumor resection), the tumor weight is on record as 488.333 mg. Also, in data set [3] (measured at 40 days after drug administration), the tumor volume came to 813.356 mm^3.
Take `Cc1nn(CCC2CCN(C)CC2)c2cc(NC(=O)c3ccc4c(c3Cl)C=CC(C)(C)O4)ccc12` [compound 38, 5-chloro-2,2-dimethyl-N-(3-methyl-1-(2-(1-methylpiperidin-4-yl)ethyl)-1H-indazol-6-yl)-2H-chromene-6-carboxamide]: the “changes in cell morphology (cytotoxicity)” value in the data set with MDA-MB-231 cell line [4] and in the data set on BT549 cell line [8] was “morphological changes in which the cytoplasm shrank” each time. The “type of cell death (apoptosis)” value in the data set with BT549 cell line [5] is “early and late apoptosis of cancer cells was induced”; with MDA-MB-231 cell line [9], “early and late apoptosis of cancer cells was induced”. Moreover, the results for the IC50 (in data set [6]; in the data set with MDA-MB-231 cell line [1]; with BT549 cell line [7]) were 1.21 µM, 3.67 µM and 4.84 µM, respectively.
